# In patent US7776848B2, “Spirocyclic cyclohexane compounds” (Gruenenthal GmbH, priority 2004, dated 2010):
# Counter-ions that a name gives are not always drawn.
# Columns and labels:
# [1] = molecular target: T1, NA uptake (noradrenaline reuptake), synaptosomes from hypothalamus of male rat brains (Rattus norvegicus, UniProt Q63380); assay: Noradrenaline reuptake inhibition (NA uptake inhibition) in rat brain synaptosomes; format: biochemical
# T1 construct: synaptosomes are freshly isolated from areas of rat brain; from tissue; host or cells: synaptosomes (P2 fraction) from hypothalamus of male rat brains
# T1 sequence (Q63380 1-617): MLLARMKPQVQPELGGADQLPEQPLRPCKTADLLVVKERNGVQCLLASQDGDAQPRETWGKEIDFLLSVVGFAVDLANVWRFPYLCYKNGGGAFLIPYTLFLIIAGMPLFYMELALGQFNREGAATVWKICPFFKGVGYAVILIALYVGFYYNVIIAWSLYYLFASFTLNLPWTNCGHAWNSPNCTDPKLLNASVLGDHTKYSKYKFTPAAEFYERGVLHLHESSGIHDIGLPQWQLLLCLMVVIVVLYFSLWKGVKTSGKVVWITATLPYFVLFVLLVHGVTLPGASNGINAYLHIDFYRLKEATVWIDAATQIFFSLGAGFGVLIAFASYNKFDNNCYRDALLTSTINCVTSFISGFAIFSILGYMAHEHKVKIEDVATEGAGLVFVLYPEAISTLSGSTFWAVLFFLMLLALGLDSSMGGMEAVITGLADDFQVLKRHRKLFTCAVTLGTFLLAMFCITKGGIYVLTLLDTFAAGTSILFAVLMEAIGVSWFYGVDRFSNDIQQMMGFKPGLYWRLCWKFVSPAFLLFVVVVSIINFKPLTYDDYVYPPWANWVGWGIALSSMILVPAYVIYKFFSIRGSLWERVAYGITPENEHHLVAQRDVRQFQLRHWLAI
# Procedure: b) Studies of Noradrenaline Reuptake Inhibition (NA Uptake Inhibition)
# In order to be able to carry out these in vitro studies, synaptosomes are freshly isolated from areas of rat brain. A so-called “P2” fraction is used in each case, which is prepared according to the procedure of Gray and Whittaker (E. G. Gray and V. P. Whittaker (1962) J. Anat. 76, 79-88). For NA uptake, these vesicular particles are isolated from the hypothalamus of male rat brains. A detailed description of the method can be found in the literature (M. Ch. Frink, H.-H. Hennies, W. Englberger, M. Haurand and B. Wilffert (1996) Arzneim.-Forsch./Drug Res. 46 (III), 11, 1029-1036).
# [2] = molecular target: T2, 5HT uptake (serotonin reuptake), synaptosomes from hypothalamus of male rat brains (Rattus norvegicus, UniProt P31652); assay: Serotonin reuptake inhibition (5HT uptake inhibition) in rat brain synaptosomes; format: biochemical
# T2 construct: synaptosomes are freshly isolated from areas of rat brain; from tissue; host or cells: synaptosomes (P2 fraction) from hypothalamus of male rat brains
# T2 sequence (P31652 whole entry): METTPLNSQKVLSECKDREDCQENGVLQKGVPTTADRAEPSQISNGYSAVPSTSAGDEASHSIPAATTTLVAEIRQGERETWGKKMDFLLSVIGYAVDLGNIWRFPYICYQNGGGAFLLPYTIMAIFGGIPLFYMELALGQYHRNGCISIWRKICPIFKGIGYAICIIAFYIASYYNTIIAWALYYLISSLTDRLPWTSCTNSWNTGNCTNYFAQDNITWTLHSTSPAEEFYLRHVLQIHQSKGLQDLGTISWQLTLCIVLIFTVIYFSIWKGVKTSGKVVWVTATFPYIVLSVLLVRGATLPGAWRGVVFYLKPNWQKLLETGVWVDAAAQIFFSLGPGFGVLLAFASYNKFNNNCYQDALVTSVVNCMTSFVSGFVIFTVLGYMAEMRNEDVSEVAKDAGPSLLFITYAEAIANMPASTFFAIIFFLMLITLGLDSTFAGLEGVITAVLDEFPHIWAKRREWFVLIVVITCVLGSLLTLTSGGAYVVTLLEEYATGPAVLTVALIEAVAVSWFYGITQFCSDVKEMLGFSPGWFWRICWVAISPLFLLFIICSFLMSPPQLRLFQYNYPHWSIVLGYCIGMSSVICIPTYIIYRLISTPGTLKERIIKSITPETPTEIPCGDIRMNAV
# Procedure: Biological Testing a) Studies of Serotonin Reuptake Inhibition (5HT Uptake Inhibition)
# In order to be able to carry out these in vitro studies, synaptosomes are freshly isolated from areas of rat brain. A so-called “P2” fraction is used in each case, which is prepared according to the procedure of Gray and Whittaker (E. G. Gray and V. P. Whittaker (1962) J. Anat. 76, 79-88). For 5HT uptake, these vesicular particles are isolated from the hypothalamus of male rat brains. A detailed description of the method can be found in the literature (M. Ch. Frink, H.-H. Hennies, W. Englberger, M. Haurand and B. Wilffert (1996) Arzneim.-Forsch./Drug Res. 46 (III), 11, 1029-1036).
SMILES,inhibition at 10 µM [1] [%],inhibition at 10 µM [2] [%]
"CN(C)CC1CC2(CCC1(O)c1cccc(F)c1)NCCc1c2[nH]c2ccccc12 (centres unmarked) [Example 3, 1,1-(2-(Dimethylaminomethyl)-3-hydroxy-3-(3-fluorophenyl)-pentamethylene)-3,4-dihydro-1H-2,9-diazafluorene citrate]",48,75
"Cc1ccccc1C1(O)CCC2(CC1CN(C)C)NCCc1c2[nH]c2ccccc12 (centres unmarked) [Example 6, 1,1-(2-(Dimethylaminomethyl)-3-hydroxy-3-(2-methylphenyl)-pentamethylene)-3,4-dihydro-1H-2,9-diazafluorene citrate]",–,69
"CN(C)CC1CC2(CCC1(O)c1ccccc1)OCCc1c2sc2ccccc12 (centres unmarked) [Example 7, 1,1-(2-(Dimethylaminomethyl)-3-hydroxy-3-phenyl-pentamethylene)-1,3,4,9-tetrahydro-pyrano[3,4-b]benzothiophene citrate]",59,88
"CN(C)CC1CC2(CCC1(O)c1ccccc1)SCCc1c2[nH]c2ccccc12 (centres unmarked) [Example 9, 1,1-(2-(Dimethylaminomethyl)-3-hydroxy-3-phenyl-pentamethylene)-1,3,4,9-tetrahydro-2-thia-9-aza-fluorene citrate]",–,81
"CN(C)CC1CC2(CCC1(O)c1cccc(F)c1)OCCc1c2sc2ccccc12 (centres unmarked) [Example 10, 1,1-(2-(Dimethylaminomethyl)-3-hydroxy-3-(3-fluorophenyl)-pentamethylene)-1,3,4,9-tetrahydro-pyrano[3,4-b]benzothiophene citrate]",55,88
"Cc1ccccc1C1(O)CCC2(CC1CN(C)C)OCCc1c2sc2ccccc12 (centres unmarked) [Example 11, 1,1-(2-(Dimethylaminomethyl)-3-hydroxy-3-(2-methylphenyl)-pentamethylene)-1,3,4,9-tetrahydro-pyrano[3,4-b]benzothiophene citrate]",43,85
"CN(C)CC1CC2(CCC1(O)c1ccc(C(F)(F)F)cc1)OCCc1c2oc2ccccc12 (centres unmarked) [Example 13, 1,1-(2-(Dimethylaminomethyl)-3-hydroxy-3-(4-trifluoromethylphenyl)-pentamethylene)-1,3,4,9-tetrahydro-pyrano[3,4-b]benzofuran citrate]",46,60
"CN(C)CC1CC2(CCC1(O)c1cccc(F)c1)SCCc1c2[nH]c2ccccc12 (centres unmarked) [Example 14, 1,1-(2-(Dimethylaminomethyl)-3-hydroxy-3-(3-fluorophenyl)-pentamethylene)-1,3,4,9-tetrahydro-2-thia-9-aza-fluorene citrate]",46,61
"CN(C)CC1CC2(CCC1(O)c1ccc(C(F)(F)F)cc1)NCCc1c2[nH]c2ccccc12 (centres unmarked) [Example 15, 1,1-(2-(Dimethylaminomethyl)-3-hydroxy-3-(4-trifluoromethylphenyl)-pentamethylene)-3,4-dihydro-1H-2,9-diazafluorene dicitrate]",76,83
"CN(C)CC1CC2(CCC1(O)c1cccc(F)c1)NCCc1c2[nH]c2cc(F)ccc12 (centres unmarked) [Example 16, 1,1-(2-(Dimethylaminomethyl)-3-hydroxy-3-(3-fluorophenyl)-pentamethylene)-7-fluoro-3,4-dihydro-1H-2,9-diazafluorene sesquicitrate]",–,72
"COc1ccc2[nH]c3c(c2c1)CCNC31CCC(O)(c2ccccc2)C(CN(C)C)C1 (centres unmarked) [Example 17, 1,1-(2-(Dimethylaminomethyl)-3-hydroxy-3-phenyl-pentamethylene)-3,4-dihydro-6-methoxy-1H-2,9-diazafluorene citrate]",–,57
"COc1ccc2[nH]c3c(c2c1)CCOC31CCC(O)(c2ccc(SC)cc2)C(CN(C)C)C1 (centres unmarked) [Example 18, 1,1-(2-(Dimethylaminomethyl)-3-hydroxy-3-(4-methylthiophenyl)-pentamethylene)-1,3,4,9-tetrahydro-6-methoxy-pyrano[3,4-b]indole citrate]",41,–
"CSc1ccc(C2(O)CCC3(CC2CN(C)C)OCCc2c3[nH]c3ccccc23)cc1 (centres unmarked) [Example 20, 1,1-(2-(Dimethylaminomethyl)-3-hydroxy-3-(4-methylthiophenyl)-pentamethylene)-1,3,4,9-tetrahydro-pyrano[3,4-b]indole citrate]",–,58
"COc1ccc2[nH]c3c(c2c1)CCNC31CCC(O)(c2cccc(F)c2)C(CN(C)C)C1 (centres unmarked) [Example 21, 1,1-(2-(Dimethylaminomethyl)-3-hydroxy-3-(3-fluorophenyl)-pentamethylene)-3,4-dihydro-6-methoxy-1H-2,9-diazafluorene citrate]",44,57
"COc1ccc2[nH]c3c(c2c1)CCNC31CCC(O)(c2ccc(C(F)(F)F)cc2)C(CN(C)C)C1 (centres unmarked) [Example 22, 1,1-(2-(Dimethylaminomethyl)-3-hydroxy-3-(4-trifluoromethylphenyl)-pentamethylene)-3,4-dihydro-6-methoxy-1H-2,9-diazafluorene citrate]",–,47
"CSc1ccc(C2(O)CCC3(CC2CN(C)C)SCCc2c3[nH]c3ccccc23)cc1 (centres unmarked) [Example 23, 1,1-(2-(Dimethylaminomethyl)-3-hydroxy-3-(4-methylthiophenyl)-pentamethylene)-1,3,4,9-tetrahydro-2-thia-9-aza-fluorene sesquicitrate]",–,50
"Cc1ccccc1C1(O)CCC2(CC1CN(C)C)SCCc1c2[nH]c2ccccc12 (centres unmarked) [Example 24, 1,1-(2-(Dimethylaminomethyl)-3-hydroxy-3-(2-methylphenyl)-pentamethylene)-1,3,4,9-tetrahydro-2-thia-9-aza-fluorene citrate]",42,75
"CSc1ccc(C2(O)CCC3(CC2CN(C)C)NCCc2c3[nH]c3ccccc23)cc1 (centres unmarked) [Example 26, 1,1-(2-(Dimethylaminomethyl)-3-hydroxy-3-(4-methylthiophenyl)-pentamethylene)-3,4-dihydro-1H-2,9-diazafluorene citrate]",40,–
"CN(C)CC1CC2(CCC1(O)c1ccc(C(F)(F)F)cc1)OCCc1c2sc2ccccc12 (centres unmarked) [Example 29, 1,1-(2-(Dimethylaminomethyl)-3-hydroxy-3-(4-trifluoromethylphenyl)-pentamethylene)-1,3,4,9-tetrahydro-pyrano[3,4-b]benzothiophene citrate]",35,47
"CSc1ccc(C2(O)CCC3(CC2CN(C)C)OCCc2c3oc3ccccc23)cc1 (centres unmarked) [Example 30, 1,1-(2-(dimethylaminomethyl)-3-hydroxy-3-(4-methylthiophenyl)-pentamethylene)-1,3,4,9-tetrahydro-pyrano[3,4-b]benzofuran citrate]",37,83
"CSc1ccc(C2(O)CCC3(CC2CN(C)C)OCCc2c3sc3ccccc23)cc1 (centres unmarked) [Example 31, 1,1-(2-(dimethylaminomethyl)-3-hydroxy-3-(4-methylthiophenyl)-pentamethylene)-1,3,4,9-tetrahydro-pyrano[3,4-b]benzothiophene citrate]",60,82
"Cc1ccccc1C1(O)CCC2(CC1CN(C)C)NCCc1c2[nH]c2cc(F)ccc12 (centres unmarked) [Example 32, 1,1-(2-(Dimethylaminomethyl)-3-hydroxy-3-(2-methylphenyl)-pentamethylene)-7-fluoro-3,4-dihydro-1H-2,9-diazafluorene citrate]",38,75
"CN(C)CC1CC2(CCC1(O)c1ccc(C(F)(F)F)cc1)NCCc1c2[nH]c2cc(F)ccc12 (centres unmarked) [Example 33, 1,1-(2-(Dimethylaminomethyl)-3-hydroxy-3-(4-trifluoromethylphenyl)-pentamethylene)-7-fluoro-3,4-dihydro-1H-2,9-diazafluorene citrate]",68,78
"CN(C)CC1CC2(CCC1(O)c1ccccc1)NCCc1c2[nH]c2cc(F)ccc12 (centres unmarked) [Example 35, 1,1-(2-(Dimethylaminomethyl)-3-hydroxy-3-phenyl-pentamethylene)-7-fluoro-3,4-dihydro-1H-2,9-diazafluorene dicitrate]",–,67
